# From US10344060B2 (priority 2013, dated 2019)
# Molecular target: hNav1.7 (Homo sapiens, UniProt Q15858)
# Test: cell-based
# Format: cell-based
# Settings: Table 12; PatchXpress, tonic block; read-out: PX hNav1.7 Tonic IC50
# Chain of hNav1.7 (Q15858 whole entry): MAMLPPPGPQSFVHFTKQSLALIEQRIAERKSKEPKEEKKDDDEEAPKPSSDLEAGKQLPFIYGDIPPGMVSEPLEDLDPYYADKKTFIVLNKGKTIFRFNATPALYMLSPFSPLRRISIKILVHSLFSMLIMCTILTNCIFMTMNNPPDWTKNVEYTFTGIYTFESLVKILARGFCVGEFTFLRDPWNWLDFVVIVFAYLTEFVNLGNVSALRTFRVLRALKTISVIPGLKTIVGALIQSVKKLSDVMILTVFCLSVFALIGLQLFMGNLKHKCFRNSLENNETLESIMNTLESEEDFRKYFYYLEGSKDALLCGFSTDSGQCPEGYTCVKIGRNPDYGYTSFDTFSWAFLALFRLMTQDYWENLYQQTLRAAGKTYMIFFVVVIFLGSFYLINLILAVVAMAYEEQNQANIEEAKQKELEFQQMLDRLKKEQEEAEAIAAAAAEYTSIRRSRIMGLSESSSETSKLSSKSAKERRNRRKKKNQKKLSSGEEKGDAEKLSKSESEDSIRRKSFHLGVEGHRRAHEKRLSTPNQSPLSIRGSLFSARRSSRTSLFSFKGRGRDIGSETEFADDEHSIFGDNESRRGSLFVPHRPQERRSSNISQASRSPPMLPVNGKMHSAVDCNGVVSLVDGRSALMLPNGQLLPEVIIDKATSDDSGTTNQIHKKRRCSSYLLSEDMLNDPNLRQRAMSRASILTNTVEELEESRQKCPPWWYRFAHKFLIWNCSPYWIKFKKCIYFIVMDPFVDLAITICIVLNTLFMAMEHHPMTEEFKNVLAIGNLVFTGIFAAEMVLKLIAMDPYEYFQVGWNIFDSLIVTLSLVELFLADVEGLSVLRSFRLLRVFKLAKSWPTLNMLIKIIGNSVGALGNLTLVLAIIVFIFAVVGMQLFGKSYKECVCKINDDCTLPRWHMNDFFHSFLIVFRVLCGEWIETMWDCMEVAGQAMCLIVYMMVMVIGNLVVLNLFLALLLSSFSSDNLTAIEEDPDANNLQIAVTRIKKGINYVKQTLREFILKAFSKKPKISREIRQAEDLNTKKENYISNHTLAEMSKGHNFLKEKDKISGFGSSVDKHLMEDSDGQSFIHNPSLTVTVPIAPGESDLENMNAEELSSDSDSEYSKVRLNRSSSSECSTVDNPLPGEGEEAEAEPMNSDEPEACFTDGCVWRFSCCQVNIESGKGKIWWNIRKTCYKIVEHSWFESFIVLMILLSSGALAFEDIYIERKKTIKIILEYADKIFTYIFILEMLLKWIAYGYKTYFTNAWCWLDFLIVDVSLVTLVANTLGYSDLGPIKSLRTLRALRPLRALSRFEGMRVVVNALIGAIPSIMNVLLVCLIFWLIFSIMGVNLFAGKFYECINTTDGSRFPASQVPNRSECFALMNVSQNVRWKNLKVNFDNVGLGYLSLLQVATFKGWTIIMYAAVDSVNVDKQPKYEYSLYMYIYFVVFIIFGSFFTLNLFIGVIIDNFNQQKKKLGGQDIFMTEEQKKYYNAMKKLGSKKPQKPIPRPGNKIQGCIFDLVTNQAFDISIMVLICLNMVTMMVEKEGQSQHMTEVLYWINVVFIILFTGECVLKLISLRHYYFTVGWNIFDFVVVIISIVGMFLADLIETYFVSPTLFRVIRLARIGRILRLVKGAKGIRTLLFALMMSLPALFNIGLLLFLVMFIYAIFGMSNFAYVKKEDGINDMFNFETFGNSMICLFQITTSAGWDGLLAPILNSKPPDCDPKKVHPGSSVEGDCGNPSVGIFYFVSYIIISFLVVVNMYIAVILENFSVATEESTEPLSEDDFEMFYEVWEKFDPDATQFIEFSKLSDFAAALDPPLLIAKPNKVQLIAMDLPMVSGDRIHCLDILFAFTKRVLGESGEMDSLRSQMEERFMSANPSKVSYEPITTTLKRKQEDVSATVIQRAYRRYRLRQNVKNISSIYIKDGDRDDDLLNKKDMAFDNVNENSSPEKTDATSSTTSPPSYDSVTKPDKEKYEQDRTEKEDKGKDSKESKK
row,SMILES,IC50
1,C#CC[C@H](N)C(=O)N[C@@H](Cc1ccc(O)cc1)C(=O)N[C@H]1CSSC[C@@H]2NC(=O)[C@@H]3CSSC[C@@H](C(=O)N[C@@H](CCCNC(=N)N)C(=O)N[C@@H](CCC(=O)O)C(=O)N[C@@H](CCC(=O)O)C(=O)N[C@H](C(N)=O)[C@@H](C)CC)NC(=O)[C@H](Cc4c[nH]c5ccccc45)NC(=O)[C@H](CC(C)C)NC(=O)[C@H](CCCCN)NC(=O)[C@H](CSSC[C@H](NC(=O)[C@H]([C@@H](C)O)NC(=O)[C@H](Cc4c[nH]c5ccccc45)NC(=O)[C@H](CCCC)NC(=O)[C@H](Cc4c[nH]c5ccccc45)NC(=O)[C@H](CCCCN)NC(=O)[C@H](CCC(N)=O)NC1=O)C(=O)N[C@@H](CC(=O)O)C(=O)N[C@@H](CO)C(=O)N[C@@H](CCCCN)C(=O)N[C@@H](CCCNC(=N)N)C(=O)N[C@@H](C)C(=O)N3)NC(=O)[C@H](CCCNC(=N)N)NC(=O)[C@H](CC(C)C)NC(=O)CNC(=O)[C@H](CCC(=O)O)NC2=O [compound 725],> 10000 nM
2,C#CC[C@H](N)C(=O)N[C@@H](Cc1ccc(O)cc1)C(=O)N[C@H]1CSSC[C@@H]2NC(=O)[C@@H]3CSSC[C@@H](C(=O)N[C@@H](CCCNC(=N)N)C(=O)N[C@@H](CCCCN)C(=O)N[C@@H](CCC(=O)O)C(=O)N[C@H](C(=O)N[C@@H](CCC(=O)O)C(N)=O)[C@@H](C)CC)NC(=O)[C@H](Cc4c[nH]c5ccccc45)NC(=O)[C@H](CC(C)C)NC(=O)[C@H](CCCCN)NC(=O)[C@H](CSSC[C@H](NC(=O)[C@H]([C@@H](C)O)NC(=O)[C@H](Cc4c[nH]c5ccccc45)NC(=O)[C@H](CCCC)NC(=O)[C@H](Cc4c[nH]c5ccccc45)NC(=O)[C@H](CCCCN)NC(=O)[C@H](CCC(N)=O)NC1=O)C(=O)N[C@@H](CC(=O)O)C(=O)N[C@@H](CO)C(=O)N[C@@H](CCCCN)C(=O)N[C@@H](CCCNC(=N)N)C(=O)N[C@@H](C)C(=O)N3)NC(=O)[C@H](CCCNC(=N)N)NC(=O)[C@H](CC(C)C)NC(=O)CNC(=O)[C@H](CCC(=O)O)NC2=O [compound 726],32.4 nM
3,C#CC[C@@H]1NC(=O)[C@@H]2CSSC[C@H](NC(=O)[C@H](CCC(=O)O)NC(=O)[C@@H](N)CC#N)C(=O)N[C@@H](CCC(N)=O)C(=O)N[C@@H](CCCCN)C(=O)N[C@@H](Cc3c[nH]c4ccccc34)C(=O)N[C@@H](CCCC)C(=O)N[C@@H](Cc3c[nH]c4ccccc34)C(=O)N[C@@H]([C@@H](C)O)C(=O)N[C@H]3CSSC[C@H](NC(=O)[C@H](CCCNC(=N)N)NC(=O)[C@H](CC(C)C)NC(=O)CNC1=O)C(=O)N[C@@H](CCCCN)C(=O)N[C@@H](CC(C)C)C(=O)N[C@@H](Cc1c[nH]c4ccccc14)C(=O)N[C@H](C(=O)N[C@@H](CCCNC(=N)N)C(=O)N[C@@H](CCCCN)C(=O)N[C@@H](CCC(=O)O)C(=O)N[C@H](C(N)=O)[C@@H](C)CC)CSSC[C@H](NC(=O)[C@H](CCC(=O)O)NC(=O)[C@H](CCCNC(=N)N)NC(=O)[C@H](CCC(=O)O)NC(=O)[C@H](CO)NC(=O)[C@H](CC(=O)O)NC3=O)C(=O)N2 [compound 756],> 1000 nM
4,C#CC[C@@H]1NC(=O)[C@@H]2CSSC[C@H](NC(=O)[C@H](CCC(=O)O)NC(=O)[C@@H](N)CC#N)C(=O)N[C@@H](CCC(N)=O)C(=O)N[C@@H](CCCCN)C(=O)N[C@@H](Cc3c[nH]c4ccccc34)C(=O)N[C@@H](CCCC)C(=O)N[C@@H](Cc3c[nH]c4ccccc34)C(=O)N[C@@H]([C@@H](C)O)C(=O)N[C@H]3CSSC[C@H](NC(=O)[C@H](CCCNC(=N)N)NC(=O)[C@H](CC(C)C)NC(=O)CNC1=O)C(=O)N[C@@H](CCCCN)C(=O)N[C@@H](CC(C)C)C(=O)N[C@@H](Cc1c[nH]c4ccccc14)C(=O)N[C@H](C(=O)N[C@@H](CCCNC(=N)N)C(=O)N[C@@H](CCCCN)C(=O)N[C@@H](CCC(=O)O)C(=O)N[C@H](C(N)=O)[C@@H](C)CC)CSSC[C@H](NC(=O)[C@H](CCC(=O)O)NC(=O)[C@H](CCCNC(=N)N)NC(=O)[C@H](CCC(=O)O)NC(=O)[C@H](CCC(=O)O)NC(=O)[C@H](CC(=O)O)NC3=O)C(=O)N2 [compound 757],> 1000 nM
